Patent US8586617B2, “Aminomethyl-4-imidazoles” (Hoffmann-La Roche Inc., priority 2006, dated 2013)

Molecular target: TAAR1 (Mus musculus (Mouse), UniProt Q923Y8)
Assay: TAAR1 radioligand binding assay ([3H]-rac-2-(1,2,3,4-tetrahydro-1-naphthyl)-2-imidazoline, membranes of stably transfected HEK293 cells)
Details: read-out: Ki (μM) mouse; mouse TAAR1; radioligand [3H]-rac-2-(1,2,3,4-tetrahydro-1-naphthyl)-2-imidazoline at 60 nM; 4° C., 30 minutes
Protocol: The ability of the compounds of the present invention to bind to TAAR1 was investigated in accordance with the test given hereinafter.
For the generation of stably transfected cell lines HEK293 cells were transfected with the pIRESneo2 expression plasmids containing the TAAR coding sequences (described above) with Lipofectamine 2000 (Invitrogen) according to the instructions of the manufacturer, and 24 hours post transfection the culture medium was supplemented with 1 mg/ml G418 (Sigma, Buchs, Switzerland). After a culture period of about 10 days, clones were isolated, expanded and tested for responsiveness to trace amines (all compounds purchased from Sigma) with the cAMP Biotrak Enzyme immunoassay (EIA) System (Amersham) following the non-acetylation EIA procedure provided by the manufacturer.
Cells at confluence were rinsed with ice-cold phosphate buffered saline without Ca^2+ and Mg^2+ containing 10 mM EDTA and pelleted by centrifugation at 1000 rpm for 5 min at 4° C. The pellet was then washed twice with ice-cold phosphate buffered saline and cell pellet was frozen immediately by immersion in liquid nitrogen and stored until use at −80° C. The cell pellet was then suspended in 20 ml HEPES-NaOH (20 mM), pH 7.4 containing 10 mM EDTA, and homogenized with a Polytron (PT 3000, Kinematica) at 10,000 rpm for 10 seconds. The homogenate was centrifuged at 48,000×g for 30 minutes at 4° C. and the pellet resuspended in 20 ml HEPES-NaOH (20 mM), pH 7.4 containing 0.1 mM EDTA (buffer A), and homogenized with a Polytron at 10,000 rpm for 10 seconds. The homogenate was then centrifuged at 48,000×g for 30 minutes at 4° C. and the pellet resuspended in 20 ml buffer A, and homogenized with a Polytron at 10,000 rpm for 10 seconds. […] The homogenate was then centrifuged at 48,000×g for 10 minutes at 4° C., resuspended in HEPES-NaOH (20 mM), pH 7.0 including MgCl2 (10 mM) and CaCl2 (2 ml) (buffer B) at 200 μg protein per ml and homogenized with a Polytron at 10,000 rpm for 10 seconds.
Binding assay was performed at 4° C. in a final volume of 1 ml, and with an incubation time of 30 minutes. […] Non-specific binding was defined as the amount of [^3H]-rac-2-(1,2,3,4-tetrahydro-1-naphthyl)-2-imidazoline bound in the presence of the appropriate unlabelled ligand (10 μM). Competing ligands were tested in a wide range of concentrations (10 pM-30 μM). […] Each experiment was performed in duplicate. All incubations were terminated by rapid filtration through UniFilter-96 plates (Packard Instrument Company) and glass filter GF/C, pre-soaked for at least 2 h in polyethylenimine 0.3%, and using a Filtermate 96 Cell Harvester (Packard Instrument Company). The tubes and filters were then washed 3 times with 1 ml aliquots of cold buffer B. Filters were not dried and soaked in Ultima gold (45 D/well, Packard Instrument Company) and bound radioactivity was counted by a TopCount Microplate Scintillation Counter (Packard Instrument Company).

Sequence of TAAR1 (Q923Y8 whole entry): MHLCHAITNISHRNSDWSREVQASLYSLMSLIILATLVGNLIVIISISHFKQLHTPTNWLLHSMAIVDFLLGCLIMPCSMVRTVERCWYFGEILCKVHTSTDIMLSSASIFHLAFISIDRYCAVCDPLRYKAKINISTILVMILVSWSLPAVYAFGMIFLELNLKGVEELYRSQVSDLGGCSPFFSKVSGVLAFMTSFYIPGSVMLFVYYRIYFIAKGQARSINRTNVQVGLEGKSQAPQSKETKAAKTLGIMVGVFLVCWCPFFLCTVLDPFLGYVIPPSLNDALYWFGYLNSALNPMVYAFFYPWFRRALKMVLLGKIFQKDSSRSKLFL

| SMILES | Ki [µM] |
| --- | --- |
| CN(Cc1cnc[nH]1)c1cccc(Br)c1 [Example 284, (3-Bromo-phenyl)-(3H-imidazol-4-ylmethyl)-methyl-amine] | 0.002 |
| Clc1cc(NCc2cnc[nH]2)ccc1Br [Example 325, (4-Bromo-3-chloro-phenyl)-(1H-imidazol-4-ylmethyl)-amine] | 0.002 |
| CCN(Cc1cnc[nH]1)c1ccc2ccccc2c1 [Example 82, Ethyl-(3H-imidazol-4-ylmethyl)-naphthalen-2-yl-amine] | 0.0012 |
| CCN(Cc1cnc[nH]1)c1cccc(OCc2ccccc2)c1 [Example 192, (3-Benzyloxy-phenyl)-ethyl-(3H-imidazol-4-ylmethyl)-amine] | 0.001 |
| CC(C)N(Cc1cnc[nH]1)c1cc(F)cc(Cl)c1 [Example 76, (3-Chloro-5-fluoro-phenyl)-(3H-imidazol-4-ylmethyl)-isopropyl-amine] | 0.0011 |
| CCN(Cc1cnc[nH]1)c1cccc(OC)c1 [Example 193, Ethyl-(3H-imidazol-4-ylmethyl)-(3-methoxy-phenyl)-amine] | 0.008 |
| CCN(Cc1cnc[nH]1)c1ccc(F)c(Cl)c1 [Example 312, (3-Chloro-4-fluoro-phenyl)-ethyl-(1H-imidazol-4-ylmethyl)-amine] | 0.001 |
| CCN(Cc1cnc[nH]1)c1cccc(Br)c1 [Example 275, (3-Bromo-phenyl)-ethyl-(3H-imidazol-4-ylmethyl)-amine] | 0.001 |
| CCN(Cc1cnc[nH]1)c1ccc(F)c(OC)c1 [Example 194, Ethyl-(4-fluoro-3-methoxy-phenyl)-(3H-imidazol-4-ylmethyl)-amine] | 0.0048 |

Next, values leading:

| Ki [µM] | SMILES |
| --- | --- |
| 0.003 | CC(C)N(Cc1cnc[nH]1)c1ccc(F)c(Oc2ccccc2)c1 [Example 208, (4-Fluoro-3-phenoxy-phenyl)-(3H-imidazol-4-ylmethyl)-isopropyl-amine] |
| 0.0082 | CC(C)N(Cc1cnc[nH]1)c1ccc2ccccc2c1 [Example 70, (3H-Imidazol-4-ylmethyl)-isopropyl-naphthalen-2-yl-amine] |
| 0.001 | CCN(Cc1cnc[nH]1)c1cc(Cl)cc(Cl)c1 [Example 303, (3,5-Dichloro-phenyl)-ethyl-(1H-imidazol-4-ylmethyl)-amine] |
| 0.0068 | CN(Cc1cnc[nH]1)c1cccc(OC(F)F)c1 [Example 189, (3-Difluoromethoxy-phenyl)-(3H-imidazol-4-ylmethyl)-methyl-amine] |
| 0.0009 | Clc1cccc(N(Cc2cnc[nH]2)CC2CC2)c1 [Example 51, (3-Chloro-phenyl)-cyclopropylmethyl-(3H-imidazol-4-ylmethyl)-amine] |
| 0.0023 | CC(C)N(Cc1cnc[nH]1)c1cccc(C(F)(F)F)c1 [Example 27, (3H-Imidazol-4-ylmethyl)-isopropyl-(3-trifluoromethyl-phenyl)-amine] |
| 0.001 | FC(F)(F)c1cc(Br)cc(NCc2cnc[nH]2)c1 [Example 226, (3-Bromo-5-trifluoromethyl-phenyl)-(3H-imidazol-4-ylmethyl)-amine] |
| 0.0018 | CCN(Cc1cnc[nH]1)c1cccc(C)c1 [Example 6, Ethyl-(3H-imidazol-4-ylmethyl)-m-tolyl-amine] |
| 0.0082 | CC(C)N(Cc1cnc[nH]1)c1cccc(Oc2ccc(Cl)cc2)c1 [Example 149, [3-(4-Chloro-phenoxy)-phenyl]-(3H-imidazol-4-ylmethyl)-isopropyl-amine] |
| 0.0025 | CC(C)N(Cc1cnc[nH]1)c1ccc(F)c(Br)c1 [Example 170, (3-Bromo-4-fluoro-phenyl)-(3H-imidazol-4-ylmethyl)-isopropyl-amine] |
| 0.001 | CC(C)N(Cc1cnc[nH]1)c1ccc(Br)c(Cl)c1 [Example 331, (4-Bromo-3-chloro-phenyl)-(1#H!-imidazol-4-ylmethyl)-isopropyl-amine] |
| 0.005 | COc1cc(N(Cc2cnc[nH]2)C(C)C)ccc1Cl [Example 204, (4-Chloro-3-methoxy-phenyl)-(3H-imidazol-4-ylmethyl)-isopropyl-amine] |
